Experimental data published in patent US12479843B2, “Spiro ring-containing quinazoline compounds” (WIGEN BIOMEDICINE TECHNOLOGY (SHANGHAI) CO., LTD., priority 2019, dated 2025).

How the values were obtained:
pERK level in H358 cells = experiment: pERK and ERK protein content assay in H358 cells (ELISA); format: cell-based; conditions: Homo sapiens, NCI-H358, compound 1 μM, 24 h, pERK/ERK ratio compared with DMSO group, read-out: Inhibition rate (%) of pERK level
How it was run: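 H358 cells grown one day, then treated 24 h with compound at 1 μM. pERK and ERK in lysates measured by ELISA; pERK/ERK ratio expressed as percent inhibition versus DMSO.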

H358 cells = experiment: Antiproliferative activity against H358 cells (Cell Titer Glow, ultra-low attachment plate); format: cell-based; conditions: Homo sapiens, NCI-H358, 72 h, 96-well ultra-low attachment plate, three days after addition of compound, Cell Titer Glow
Protocol: 2500 H358 cells were seeded in a 96-well ultra-low attachment plate (corning, 7007). After one day of growth, a serially diluted compound (a maximum concentration of 5 μM, 5-fold dilution, a total of five doses) was added. Three days after the addition of the compound, Cell Titer Glow (Promega, G9681) was added to evaluate pellet growth, and the IC50 value was calculated.

| SMILES | IC50 (H358 cells) [nM] | inhibition at 1 µM (pERK level in H358 cells) [%] |
| --- | --- | --- |
| C=CC(=O)N1CCC2(CC1)CN(c1nc(OC3CCN(CCOC)CC3)nc3c(OCC(F)(F)F)c(-c4c(C)ccc5[nH]ncc45)c(C4CC4)cc13)C2 [Compound 27] | 300 to 1000 | 50 to 90 |
| C=C(C(=O)N1CC2(CCN(c3nc(OC4CCN(CCOC)CC4)nc4c(OCC(F)(F)F)c(-c5c(C)ccc6[nH]ncc56)c(C5CC5)cc34)CC2)C1)n1cccc1 [Compound 24] | 300 to 1000 | 50 to 90 |
| C=CC(=O)N1CC2(CCN(c3nc(N4CC5(CSC5)C4)nc4c(OCC(F)(F)F)c(-c5c(C)ccc6[nH]ncc56)c(C5CC5)cc34)CC2)C1 [Compound 304] | 300 to 1000 | 50 to 90 |
| C=CC(=O)N1CC2(CCN(c3nc(N4CC5(CCN(C)CC5)C4)nc4c(OCC(F)(F)F)c(-c5c(C)ccc6[nH]ncc56)c(C5CC5)cc34)CC2)C1 [Compound 77] | 300 to 1000 | 50 to 90 |
| C#Cc1cc2c(N3CCC4(CC3)CN(C(=O)C=C)C4)nc(OC3CCN(CCOC)CC3)nc2c(OCC(F)(F)F)c1-c1c(C)ccc2[nH]ncc12 [Compound 16] | 300 to 1000 | 50 to 90 |
| C=CC(=O)N1CC2(CCN(c3nc(N4CC(N5CC(F)(F)C5)C4)nc4c(OCC(F)(F)F)c(-c5c(C)ccc6[nH]ncc56)c(C5CC5)cc34)CC2)C1 [Compound 169] | 300 to 1000 | 50 to 90 |
| C=CC(=O)N1CC2(CCN(c3nc(OC[C@@H]4COCCN4C)nc4c(OCC(F)(F)F)c(-c5c(C)ccc6[nH]ncc56)c(C5CC5)cc34)CC2)C1 [Compound 115] | 300 to 1000 | 50 to 90 |
| C=CC(=O)N1CC2(CCN(c3nc(N4CC(N5C6CCC5CC6)C4)nc4c(OCC)c(-c5c(C)ccc6[nH]ncc56)c(C5CC5)cc34)CC2)C1 [Compound 332] | < 300 | > 90 |
| C=CC(=O)N1CC2(CCN(c3nc(N4CC[C@@H](N5CC[C@@H](C)C5)C4)nc4c(OCC(F)(F)F)c(-c5c(C)ccc6[nH]ncc56)c(C5CC5)cc34)CC2)C1 [Compound 301] | < 300 | > 90 |
| C=CC(=O)N1CC2(CCN(c3nc(N4CC5(C4)OCC[C@@H]5N(C)C)nc4c(OCC(F)(F)F)c(-c5c(C)ccc6[nH]ncc56)c(C5CC5)cc34)CC2)C1 [Compound 280] | < 300 | > 90 |
| C=CC(=O)N1CC2(CCN(c3nc(OC4CC5CCC4N5C)nc4c(OCC(F)(F)F)c(-c5c(C)ccc6[nH]ncc56)c(C5CC5)cc34)CC2)C1 (stereo not drawn) [Compound 308] | < 300 | > 90 |
| C=C(F)C(=O)N1CC2(CCN(c3nc(OC4CCN(CCOC)CC4)nc4c(OCC(F)(F)F)c(-c5c(C)ccc6nc[nH]c(=O)c56)c(C5CC5)cc34)CC2)C1 [Compound 44] | < 300 | > 90 |
| C=CC(=O)N1CC2(CCN(c3nc(N4CC(N5CC(CC#N)C5)C4)nc4c(OCC(F)(F)F)c(-c5c(C)ccc6[nH]ncc56)c(C5CC5)cc34)CC2)C1 [Compound 242] | < 300 | > 90 |
| C=CC(=O)N1CC2(CCN(c3nc(N4CC[C@H](N5CC[C@@H](F)C5)C4)nc4c(OCC(F)(F)F)c(-c5c(C)ccc6[nH]ncc56)c(C5CC5)cc34)CC2)C1 [Compound 193] | < 300 | > 90 |
| C=CC(=O)N1CC2(CCN(c3nc(N4CC(N5C[C@H](OC)[C@@H](F)C5)C4)nc4c(OCC(F)(F)F)c(-c5c(C)ccc6[nH]ncc56)c(C5CC5)cc34)CC2)C1 [Compound 263] | < 300 | > 90 |
| C=CC(=O)N1CC2(CCN(c3nc(N4CC5(CC(N6CCC[C@@H]6C)C5)C4)nc4c(OCC(F)(F)F)c(-c5c(C)ccc6[nH]ncc56)c(C5CC5)cc34)CC2)C1 [Compound 290] | < 300 | > 90 |
| C=CC(=O)N1CC2(CCN(c3nc(N4CC(N5CC[C@@H](C)C5)C4)nc4c(OCC(F)(F)F)c(-c5c(C)c(C)cc6[nH]ncc56)c(C5CC5)cc34)CC2)C1 [Compound 325] | < 300 | > 90 |
| C=CC(=O)N1CC2(CCN(c3nc(N4CC5(CC(C#N)C5)C4)nc4c(OCC(F)(F)F)c(-c5c(C)ccc6[nH]ncc56)c(C5CC5)cc34)CC2)C1 [Compound 285] | 300 to 1000 | 50 to 90 |
| C=CC(=O)N1CC2(CCN(c3nc(N4CC(N5CCC[C@H]5C)C4)nc4c(OCC(F)(F)F)c(-c5c(C)ccc6[nH]ncc56)c(C5CC5)cc34)CC2)C1 [Compound 245] | < 300 | > 90 |
| C=CC(=O)N1CC2(CCN(c3nc(N(C)CCN4CCCC4)nc4c(OCC(F)(F)F)c(-c5c(C)ccc6[nH]ncc56)c(C5CC5)cc34)CC2)C1 [Compound 232] | < 300 | > 90 |
| C=CC(=O)N1CC2(CCN(c3nc(N4CC(N5CCC(F)(F)CC5)C4)nc4c(OCC(F)(F)F)c(-c5c(C)ccc6[nH]ncc56)c(C5CC5)cc34)CC2)C1 [Compound 180] | 300 to 1000 | > 90 |
| C=CC(=O)N1CC2(CCN(c3nc(N4CC[C@@H](N(CC)CC)C4)nc4c(OCC(F)(F)F)c(-c5c(C)ccc6[nH]ncc56)c(C5CC5)cc34)CC2)C1 [Compound 190] | < 300 | > 90 |
| C=C(C(=O)N1CC2(CCN(c3nc(OC4CCN(CCOC)CC4)nc4c(OCC(F)(F)F)c(-c5c(C)ccc6[nH]ncc56)c(C5CC5)cc34)CC2)C1)n1cncn1 [Compound 23] | < 300 | > 90 |
| C=CC(=O)N1CC2(C1)CN(c1nc(OC3CCN(CCOC)CC3)nc3c(OCC(F)(F)F)c(-c4c(C)ccc5[nH]ncc45)c(C4CC4)cc13)C2 [Compound 26] | 300 to 1000 | 50 to 90 |
| C=CC(=O)N1CC2(CCN(c3nc(N4CC5(CN(C)C5)C4)nc4c(OCC(F)(F)F)c(-c5c(C)ccc6[nH]ncc56)c(C5CC5)cc34)CC2)C1 [Compound 69] | < 300 | > 90 |
| C=CC(=O)N1CC2(CCN(c3nc(N4CC5(C4)CN(C4COC4)C5)nc4c(OCC(F)(F)F)c(-c5c(C)ccc6[nH]ncc56)c(C5CC5)cc34)CC2)C1 [Compound 158] | < 300 | > 90 |

Further lines, with some results ahead:

| IC50 (H358 cells) [nM] | SMILES | inhibition at 1 µM (pERK level in H358 cells) [%] |
| --- | --- | --- |
| < 300 | C=CC(=O)N1CC2(CCN(c3nc(N4CC[C@H](N5CCCCC5)C4)nc4c(OCC(F)(F)F)c(-c5c(C)ccc6[nH]ncc56)c(C5CC5)cc34)CC2)C1 [Compound 207] | > 90 |
| < 300 | C=CC(=O)N1CC2(CCN(c3nc(N4CC5(C4)[C@@H](O)CCN5C)nc4c(OCC(F)(F)F)c(-c5c(C)ccc6[nH]ncc56)c(C5CC5)cc34)CC2)C1 [Compound 271] | > 90 |
| < 300 | C=CC(=O)N1CC2(CCN(c3nc(OC4CC5(C4)CN(C4COC4)C5)nc4c(OCC(F)(F)F)c(-c5c(C)ccc6[nH]ncc56)c(C5CC5)cc34)CC2)C1 [Compound 127] | > 90 |
| < 300 | C=CC(=O)N1CC2(CCN(c3nc(OC4CCN(CCOC)CC4)nc4c(OCC(F)(F)F)c(-c5c(N)cccc5F)c(C5CC5)cc34)CC2)C1 [Compound 47] | > 90 |
| < 300 | C=CC(=O)N1CC2(CCN(c3nc(N4CC5(CC(N6CCCC6)C5)C4)nc4c(OCC(F)(F)F)c(-c5c(C)ccc6[nH]ncc56)c(C5CC5)cc34)CC2)C1 [Compound 289] | > 90 |
| < 300 | C=C(F)C(=O)N1CC2(CCN(c3nc(N4CC5(CCN(CCOCC)CC5)C4)nc4c(OCC(F)(F)F)c(-c5c(C)ccc6[nH]ncc56)c(C5CC5)cc34)CC2)C1 [Compound 94] | > 90 |
| < 300 | C=CC(=O)N1CC2(CCN(c3nc(N4CC(N5CC[C@H](OC)C5)C4)nc4c(OCC(F)(F)F)c(-c5c(C)ccc6[nH]ncc56)c(C5CC5)cc34)CC2)C1 [Compound 174] | > 90 |
| < 300 | C=CC(=O)N1CC2(CCN(c3nc(OC4CCN(CCOC)CC4)nc4c(OCC(F)(F)F)c(-c5c(O)ccc6ccccc56)c(C5CC5)cc34)CC2)C1 [Compound 59] | > 90 |
| < 300 | C=CC(=O)N1CC2(CCN(c3nc(OC4CCN(CCOC)CC4)nc4c(OCC(F)(F)F)c(-c5ccc(F)cc5F)c(C5CC5)cc34)CC2)C1 [Compound 56] | > 90 |
| < 300 | C=C(F)C(=O)N1CC2(CCN(c3nc(OC4CCN(CCOC)CC4)nc4c(OCC(F)(F)F)c(-c5c(O)cccc5F)c(C5CC5)cc34)CC2)C1 [Compound 46] | > 90 |
| < 300 | C=CC(=O)N1CC2(CCN(c3nc(N4CCC5(CCN(CCOC)C5)CC4)nc4c(OCC(F)(F)F)c(-c5c(C)ccc6[nH]ncc56)c(C5CC5)cc34)CC2)C1 [Compound 105] | > 90 |
| < 300 | C=CC(=O)N1CC2(CCN(c3nc(OC4CCN(CCOC)CC4)nc4c(N5CC(F)(F)C5)c(-c5c(C)ccc6[nH]ncc56)c(C5CC5)cc34)CC2)C1 [Compound 9] | > 90 |
| < 300 | C=C(F)C(=O)N1CC2(CCN(c3nc(N4CC(N5CCC5)C4)nc4c(OCC(F)(F)F)c(-c5c(C)ccc6[nH]ncc56)c(C5CC5)cc34)CC2)C1 [Compound 143] | > 90 |
| < 300 | C=C(F)C(=O)N1CC2(CCN(c3nc(OC4CC5(CCN(C)CC5)C4)nc4c(OCC(F)(F)F)c(-c5c(C)ccc6[nH]ncc56)c(C5CC5)cc34)CC2)C1 [Compound 130] | > 90 |
| < 300 | C=CC(=O)N1CC2(CCN(c3nc(N4CC(N5CCC5)C4)nc4c(OCC(F)(F)F)c(-c5c(C)c(F)cc6[nH]ncc56)c(C=C)cc34)CC2)C1 [Compound 223] | > 90 |
| < 300 | C=CC(=O)N1CC2(CCN(c3nc(N4CC[C@H](N(C)CC)C4)nc4c(OCC(F)(F)F)c(-c5c(C)ccc6[nH]ncc56)c(C5CC5)cc34)CC2)C1 [Compound 187] | > 90 |
